Results reported in patent US20250382346A1, “NEURONAL PROMOTERS AND USES THEREOF” (priority 2023, published 2025).

Biological target: T1, rM3Ds (Rattus norvegicus, UniProt P08483, A177S/A238G/A489L/DEL261-437/DEL441-478/E258S/I253V/I483M/INS256[…]/K178L/K182A/K255R/K484R/K486H/L173F/L482A/M480V/R171S/R176Q/R179M/S481M/T174R/T181R/T257A/Y148C)
T1 sequence (P08483 with tags, fused parts or gaps Y148C/R171S/L173F/T174R/R176Q/A177S/K178L/R179M/T181R/K182A/A238G/I253V/K255R/INS256[…]/T257A/E258S/DEL261-437/DEL441-478/M480V/S481M/L482A/I483M/K484R/K486H/A489L): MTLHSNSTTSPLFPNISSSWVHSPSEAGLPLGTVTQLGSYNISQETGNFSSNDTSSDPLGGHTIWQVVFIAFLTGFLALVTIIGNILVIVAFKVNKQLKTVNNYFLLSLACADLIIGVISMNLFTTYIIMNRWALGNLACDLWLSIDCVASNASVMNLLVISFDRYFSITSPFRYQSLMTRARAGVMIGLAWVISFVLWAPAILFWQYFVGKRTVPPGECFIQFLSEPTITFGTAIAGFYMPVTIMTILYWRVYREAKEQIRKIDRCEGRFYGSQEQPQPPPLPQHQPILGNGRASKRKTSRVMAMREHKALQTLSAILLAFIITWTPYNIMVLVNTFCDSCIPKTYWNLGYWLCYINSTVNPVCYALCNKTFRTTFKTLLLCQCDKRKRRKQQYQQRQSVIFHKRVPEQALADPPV
Assay: Chemogenetic manipulation of BG direct pathway in mice with rM3Ds: rotations, nigral c-Fos
Format: in vivo
Set-up: 2A-EYFP (C); expressed in transfected cells; host or cells: neurons (striatal D1-MSNs) of mice or cynomolgus macaques, transduced in vivo by nigral AAV8R12-G88P7-rM3Ds-2A-EYFP
Conditions: for contraversive rotations (FIG. 7A), mean±SEM: AAV8R12-G88P7-rM3Ds-2A-EYFP nigral, n=8; for rotation behavior (FIG. 7C), mean±SEM: control vector AAV8R12-G88P7-EYFP, n=5, no effect
Procedure: Mice were anesthetized with sodium pentobarbital (Nembutal; 80 mg/kg, i.p.), and then placed into a stereotaxic device (KOPF). Eye cream was applied on both corneas to avoid dehydration. The skull above the targeted areas was thinned with a dental drill and carefully removed. Injections were conducted with a 10 μL syringe connected to a 33-Gauge needle (Neuros; Hamilton), using a microsyringe pump (Legato 130, KD Scientific). A total volume of 200 nL virus was injected into the SNr at a speed of 20 nL/min. The coordinates for the SNr were 3.4 mm posterior, 1.3 mm lateral, 4.8 mm ventral to the bregma.
Mice that were used in the behavioral experiments were then implanted with guide cannulas (KOPF) unilaterally aiming at the dorsomedial striatum (0.5 mm anterior, 1.5 mm lateral, 3.5 mm ventral to the bregma). The cannulas were fixed to the skull with dental cement. Stainless steel obturators were inserted into the guide cannulas and were replaced every other day to maintain the patency until infusions were made. Mice were allowed to recover from the surgery for at least 3 weeks before further studies.
To further optimize the system, an alternative chemogenetic effector that would potentially allow specific manipulation of the direct pathway compatible with systemic CNO infusions needed to be identified. […]. A different chemogenetic effector, rM3Ds, which uses cAMP as the second messenger and can effectively activate striatal MSNs, was used to avoid the activation of SNr neurons upon systemic CNO administration.
Together, these findings confirm that the approach we developed is a durable solution for selective activity modulation of D1-MSNs and the BG direct pathway.
Mice were individually handled for 10-20 seconds per day for at least 5 days to habituate them to the experimenter. The open field test was conducted in a test apparatus (50 cm×50 cm×50 cm) with an HD digital camera (Sony) positioned above the arena. On day one, mice were habituated to the apparatus for 10 minutes. On day 2, mice were administrated saline (0.1 mL i.p. or 200 nL intracranially [i.e.] through the guide cannulas). On day 3, mice were administrated with Clozapine-N-oxide (CNO, Hello Bio, HB1807; 0.3 mg/kg i.p. or 200 nL at 100 μM i.e.). All behavioral tests were conducted 30 minutes after injection. During the test, mice were allowed to freely explore the apparatus for 10 minutes. The behavioral data were analyzed with ANY-maze software (Stoelting Co.).

## C[N+]1([O-])CCN(C2=Nc3cc(Cl)ccc3Nc3ccccc32)CC1 [CNO, Clozapine-N-oxide]
CNO i.p., saline 45.95±4.972
  contraversive rotations (FIG. 7A), mean±SEM: 80.05±5.168
CNO intracranial, saline 58.31±4.742
  contraversive rotations (FIG. 7A), mean±SEM: 80.77±4.187
AAV8R12-G88P7-rM3Ds-2A-EYFP, intraperitoneal and intracranial CNO
  c-Fos+ cells in the SNr: did not increase the number of c-Fos+ cells in the SNr
CNO i.p., saline 48.68±7.203
  rotation behavior (FIG. 7C), mean±SEM: 46.88±7.497
CNO intracranial, saline 41.11±12.73
  rotation behavior (FIG. 7C), mean±SEM: 34.55±7.536
